# Measured values: patent US20170360664A1, “PERSONAL CARE COMPOSITIONS” (Colgate-Palmolive Company, priority 2015, published 2017)
# Test: Clarity, pH and aging stability of aqueous SnF2/STPP solutions
# Type: physicochemical
# Conditions: 2% stannous fluoride solution without STPP
# Protocol: The solutions are then further mixed at room temperature until a clear solution forms. All of the solutions contain 2% SnF2.
# The solutions with a P:Sn molar ratio spanning from 1 to 15 containing 2% SnF2 are aged overnight at room temperature.
# A different set of solutions with a P:Sn molar ratio of 2 and 5 are placed in a 50° C. oven for eight weeks.
smiles,measurement,value
[F][Sn][F] [stannous fluoride],Appearance after dissolution,precipitate almost immediately after dissolution
